Results: patent US11524938B2, “Aromatic sulfonamide derivatives” (Bayer Pharma Aktiengesellschaft, priority 2016, dated 2022)

Target: T1, human P2X4 (Homo sapiens, UniProt Q99571)
T1 sequence (Q99571 1-388): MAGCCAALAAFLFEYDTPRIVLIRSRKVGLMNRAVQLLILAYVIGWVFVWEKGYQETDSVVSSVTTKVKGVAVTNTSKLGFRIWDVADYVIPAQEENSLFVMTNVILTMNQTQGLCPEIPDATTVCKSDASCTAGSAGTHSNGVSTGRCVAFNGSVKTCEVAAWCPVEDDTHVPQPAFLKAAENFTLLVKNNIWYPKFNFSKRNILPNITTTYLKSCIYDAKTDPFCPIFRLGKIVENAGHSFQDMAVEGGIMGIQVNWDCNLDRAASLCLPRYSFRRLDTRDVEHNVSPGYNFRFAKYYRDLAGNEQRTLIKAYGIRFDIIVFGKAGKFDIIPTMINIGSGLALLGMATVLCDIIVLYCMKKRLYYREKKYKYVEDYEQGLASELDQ
Test: Human P2X4 HEK Cell FLIPR Assay
Type: cell-based
Details: agonist Bz-ATP at EC80; for Emax: HEK293, HEK293 cells, percentage of maximal inhibition, read-out: Human P2X4 HEK Cells (FLIPR Assay) avg Efficacy [%]; for IC50: HEK293 cells, individual values listed where some fall outside detection range
Procedure, shortened: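 Calcium flux read by FLIPR for 120 sec after Bz-ATP challenge at EC80 (established each assay day), following 30 min room-temperature compound preincubation in dye-loaded stable human P2X4 HEK293 cells. Peak RFU over basal normalized to agonist control; IC50, maximal inhibition and Hill coefficient from triplicate means.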

Emax [%]	IC50 [µM]	SMILES
94	0.075	N#Cc1cnn(-c2ccc(NC(=O)Cc3cc(Cl)ccc3Cl)cc2S(N)(=O)=O)c1 [Example 211, N-[4-(4-Cyano-1H-pyrazol-1-yl)-3-sulfamoylphenyl]-2-(2,5-dichlorophenyl)acetamide]
100	0.107	NS(=O)(=O)c1cc(NC(=O)Cc2cc(F)ccc2Cl)ccc1-n1cc(C(F)(F)F)cn1 [Example 139, 2-(2-Chloro-5-fluorophenyl)-N-{3-sulfamoyl-4-[4-(trifluoromethyl)-1H-pyrazol-1-yl]phenyl}acetamide]
71	0.284	NS(=O)(=O)c1cc(NC(=O)Cc2cc(F)c(F)cc2Cl)ccc1-n1cc(C(F)(F)F)cn1 [Example 130, 2-(2-Chloro-4,5-difluorophenyl)-N-{3-sulfamoyl-4-[4-(trifluoromethyl)-1H-pyrazol-1-yl]phenyl}acetamide]
85	0.008	NS(=O)(=O)c1cc(NC(=O)Cc2ccccc2Cl)ccc1-c1nc(N2CCOCC2)cs1 [Example 549, 2-(2-Chlorophenyl)-N-{4-[4-(morpholin-4-yl)-1,3-thiazol-2-yl]-3-sulfamoylphenyl}acetamide]
89	0.006	NS(=O)(=O)c1cc(NC(=O)Cc2ccccc2Cl)ccc1-c1cncc(OC(F)F)c1 [Example 289, 2-(2-Chlorophenyl)-N-{4-[5-(difluoromethoxy)pyridin-3-yl]-3-sulfamoylphenyl}acetamide]
88	0.029	Cc1cc(-c2ccc(NC(=O)Cc3ccccc3Cl)cc2S(N)(=O)=O)sn1 [Example 424, 2-(2-Chlorophenyl)-N-[4-(3-methyl-1,2-thiazol-5-yl)-3-sulfamoylphenyl]acetamide]
81	2.59	NS(=O)(=O)c1cc(NC(=O)Cc2cccnc2Cl)ccc1-n1cnc(C(F)(F)F)n1 [Example 239, 2-(2-Chloropyridin-3-yl)-N-{3-sulfamoyl-4-[3-(trifluoromethyl)-1H-1,2,4-triazol-1-yl]phenyl}acetamide]
36	> 25	NS(=O)(=O)c1cc(NC(=O)Cc2cc(F)cc(F)c2)ccc1-n1cc(Cl)cn1 [Example 83, N-[4-(4-Chloro-1H-pyrazol-1-yl)-3-sulfamoylphenyl]-2-(3,5-difluorophenyl)acetamide]
79	0.448	CN(C)c1ncn(-c2ccc(NC(=O)Cc3ccccc3Cl)cc2S(N)(=O)=O)n1 [Example 34, 2-(2-Chlorophenyl)-N-{4-[3-(dimethylamino)-1H-1,2,4-triazol-1-yl]-3-sulfamoyl-phenyl}acetamide]
72	0.047	NS(=O)(=O)c1cc(NC(=O)Cc2ccccc2Cl)cnc1-n1cc(F)cn1 [Example 385, 2-(2-Chlorophenyl)-N-[6-(4-fluoro-1H-pyrazol-1-yl)-5-sulfamoylpyridin-3-yl]acetamide]
81	2.58	NS(=O)(=O)c1cc(NC(=O)C(O)c2ccccc2Cl)ccc1-c1cnn(C2CC2)c1 (stereo not drawn) [Example 323, 2-(2-Chlorophenyl)-N-[4-(1-cyclopropyl-1H-pyrazol-4-yl)-3-sulfamoylphenyl]-2-hydroxyethanamide]
94	0.06	Cc1c(C#N)cnn1-c1ccc(NC(=O)Cc2ccccc2Cl)cc1S(N)(=O)=O [Example 547, 2-(2-Chlorophenyl)-N-[4-(4-cyano-5-methyl-1H-pyrazol-1-yl)-3-sulfamoylphenyl]acetamide]
93	0.042	Cc1ccc(Cl)c(CC(=O)Nc2ccc(-n3cc(F)cn3)c(S(N)(=O)=O)c2)c1 [Example 165, 2-(2-Chloro-5-methylphenyl)-N-[4-(4-fluoro-1H-pyrazol-1-yl)-3-sulfamoylphenyl]-acetamide]
82	1.15	NS(=O)(=O)c1cc(NC(=O)Cc2ccccc2Cl)ccc1-c1cnn(C2CNC2)c1 [Example 271, N-{4-[1-(Azetidin-3-yl)-1H-pyrazol-4-yl]-3-sulfamoylphenyl}-2-(2-chlorophenyl)-acetamide]
49	–	NS(=O)(=O)c1cc(NC(=O)Cc2ccccc2F)ccc1-n1cccn1 [Example 393, 2-(2-Fluorophenyl)-N-[4-(1H-pyrazol-1-yl)-3-sulfamoylphenyl]acetamide]
80	0.917	NS(=O)(=O)c1cc(NC(=O)Cc2ccc(C(F)F)cc2)ccc1-n1cnc(C(F)(F)F)n1 [Example 60, 2-[4-(Difluoromethyl)phenyl]-N-{3-sulfamoyl-4-[3-(trifluoromethyl)-1H-1,2,4-triazol-1-yl]phenyl}acetamide]

Emax [%]	IC50 [µM]	SMILES
85	0.774	NS(=O)(=O)c1cc(NC(=O)Cc2cccc(C(F)(F)F)c2Cl)ccc1-n1cc(Cl)cn1 [Example 90, N-[4-(4-Chloro-1H-pyrazol-1-yl)-3-sulfamoylphenyl]-2-[2-chloro-3-(trifluoromethyl)-phenyl]acetamide]
73	0.135	NS(=O)(=O)c1cc(NC(=O)Cc2ccccc2Br)ccc1-c1cncc(C(F)(F)F)c1 [Example 449, 2-(2-Bromophenyl)-N-{3-sulfamoyl-4-[5-(trifluoromethyl)pyridin-3-yl]phenyl}acetamide]
94	0.135	NS(=O)(=O)c1cc(NC(=O)Cc2ccccc2C(F)F)ccc1-n1cc(Cl)cn1 [Example 49, N-[4-(4-Chloro-1H-pyrazol-1-yl)-3-sulfamoylphenyl]-2-[2-(difluoromethyl)-phenyl]acetamide]
90	1.24	CC(C)(C)c1cn(-c2ccc(NC(=O)Cc3ccccc3Cl)cc2S(N)(=O)=O)cn1 [Example 40, N-[4-(4-tert-Butyl-1H-imidazol-1-yl)-3-sulfamoylphenyl]-2-(2-chlorophenyl)acetamide]
87	0.213	COc1ccccc1CC(=O)Nc1ccc(-n2cc(Cl)cn2)c(S(N)(=O)=O)c1 [Example 75, N-[4-(4-Chloro-1H-pyrazol-1-yl)-3-sulfamoylphenyl]-2-(2-methoxyphenyl)acetamide]
68	1.02	NS(=O)(=O)c1cc(NC(=O)Cc2cccc(F)c2)ccc1-c1cncc(C(F)(F)F)c1 [Example 447, 2-(3-Fluorophenyl)-N-{3-sulfamoyl-4-[5-(trifluoromethyl)pyridin-3-yl]phenyl}acetamide]
84	0.077	CC(C)n1cc(-c2ccc(NC(=O)Cc3ccccc3Cl)cc2S(N)(=O)=O)cn1 [Example 359, 2-(2-Chlorophenyl)-N-{4-[1-(propan-2-yl)-1H-pyrazol-4-yl]-3-sulfamoylphenyl}-acetamide]
89	0.035	NS(=O)(=O)c1cc(NC(=O)Cc2c(Cl)cccc2Cl)ccc1-n1cc(F)cn1 [Example 179, 2-(2,6-Dichlorophenyl)-N-[4-(4-fluoro-1H-pyrazol-1-yl)-3-sulfamoylphenyl]acetamide]
89	0.147	NS(=O)(=O)c1cc(NC(=O)Cc2c(Cl)cccc2C(F)(F)F)ccc1-n1cc(C(F)(F)F)cn1 [Example 134, 2-[2-Chloro-6-(trifluoromethyl)phenyl]-N-{3-sulfamoyl-4-[4-(trifluoromethyl)-1H-pyrazol-1-yl]phenyl}acetamide]
63	0.472	NS(=O)(=O)c1cc(NC(=O)Cc2ccc(Cl)cc2Cl)ccc1-c1cncc(C(F)(F)F)c1 [Example 448, 2-(2,4-Dichlorophenyl)-N-{3-sulfamoyl-4-[5-(trifluoromethyl)pyridin-3-yl]phenyl}acetamide]
97	0.02	Cc1cn(-c2ccc(NC(=O)Cc3ccccc3Cl)cc2S(N)(=O)=O)nc1C [Example 542, 2-(2-Chlorophenyl)-N-[4-(3,4-dimethyl-1H-pyrazol-1-yl)-3-sulfamoylphenyl]acetamide]
54	0.036	CCOC(=O)c1cnn(-c2ccc(NC(=O)Cc3ccccc3F)cc2S(N)(=O)=O)c1 [Example 236, Ethyl 1-(4-{[(2-fluorophenyl)acetyl]amino}-2-sulfamoylphenyl)-1H-pyrazole-4-carboxylate]
86	0.319	CC(C)c1ccccc1CC(=O)Nc1ccc(-n2cc(Cl)cn2)c(S(N)(=O)=O)c1 [Example 100, N-[4-(4-Chloro-1H-pyrazol-1-yl)-3-sulfamoylphenyl]-2-(2-isopropylphenyl)acetamide]
44	> 25	NS(=O)(=O)c1cc(NC(=O)Cc2ccc(C(F)F)cc2)ccc1-n1cc(Cl)cn1 [Example 107, N-[4-(4-Chloro-1H-pyrazol-1-yl)-3-sulfamoylphenyl]-2-[4-(difluoromethyl)-phenyl]acetamide]
74	0.01	CNc1ncc(-c2ccc(NC(=O)Cc3ccccc3Cl)cc2S(N)(=O)=O)cn1 [Example 301, 2-(2-Chlorophenyl)-N-{4-[2-(methylamino)pyrimidin-5-yl]-3-sulfamoylphenyl}acetamide]
102	0.093	NS(=O)(=O)c1cc(NC(=O)Cc2ccc(F)cc2Cl)ccc1-c1cnn(C2CC2)c1 [Example 278, 2-(2-Chloro-4-fluorophenyl)-N-[4-(1-cyclopropyl-1H-pyrazol-4-yl)-3-sulfamoyl-phenyl]acetamide]
